One compound from paper PMC10413920, “Design, synthesis and in vitro biological studies of novel triazoles with potent and broad-spectrum antifungal activity” (Journal of Enzyme Inhibition and Medicinal Chemistry, 2023) can be followed below.

The subject of one data set is C. auris 918. Nature of the data set: MIC against FCZ-resistant strains, microdilution. Type of data set: cell-based, Candida auris. Particulars: Candidozyma auris, FCZ-resistant isolate, 30 °C, 24 h. An excerpt:
(§1) The alarming impact of drug resistance amongst Candida spp. is an emerging problem globally. Rising rates of azole-resistant Candida spp. are associated with an increase in treatment failures. Candida auris is characterised by a high level of multi-drug resistance. It has been reported in more than 45 countries and has caused serious hospital outbreaks with crude mortality rates as high as 72%[13]^,[14].
(§2) All fungal strains used in this study were obtained from the American Type Culture Collection (ATCC) and Changhai Hospital (Shanghai, China). All strains were cultivated by shaking (200 rpm) at 30 °C in YEPD medium (1% yeast extract, 2% peptone, and 2% dextrose) to an exponential growth stage.
(§3) Fungal cells at the exponential growth stage were collected and resuspended in RPMI 1640 medium, then diluted to 1 × 10^3 cells/mL. The suspension of fungal cells was inoculated into 96-well plates. Antifungal compounds were serially added and diluted in a 2-fold series to a final concentration range of 64.0–0.125 µg/mL. RPMI 1640 medium with no fungal cells served as a blank control. […] C. albicans, C. glabrata, C. parapsilosis, C. tropicalis, and C. auris cells were incubated at 30 °C for 24 h, C. neoformans and A. fumigatus cells were incubated at 30 °C for 48 h. The optical density (OD630) at 630 nm was measured by a spectrophotometer, which was used to calculate the MIC80 values of each compound.

The subject of a further data set is C. auris 919. As to the kind of experiment: MIC against FCZ-resistant strains, microdilution. The data set is classed as cell-based, Candida auris. Conditions: Candidozyma auris, FCZ-resistant isolate, 30 °C, 24 h.
Excerpt: as §1, §2, §3

Another data set has as its system C. albicans SC5314. As to the kind of experiment: GC-MS analysis of sterol composition. Type of data set: cell-based, Candida albicans. Particulars: 8 µg/mL, 8 h, control 89.85%. As for the experimental part: As the major fungal sterol, ergosterol accounted for 89.85% of the total sterols in the control group, zymosterol accounted for 8.80%, in addition to several other sterols. […] In contrast, the content of other sterols in the bypass pathway increased.
Overnight cultured C. albicans SC5314 fungal cells were collected and diluted to 5 × 10^6 cells/mL in YEPD medium. […] The fungal cells were cultured by shaking (200 rpm) at 30 °C. After incubation for 8 h, the fungal suspension was centrifuged (3000 rpm, 1 min), harvested and washed twice with distilled water carefully. The saponifying agent (6 ml of 15% NaOH resolved in 90% ethanol) was added to the precipitate. After 1 h of saponification at 80 °C, sterols were extracted with hexane (3 × 5 ml). The combined extracts were evaporated in a water bath and washed once with water. The residue was dried in a 60 °C water bath to obtain the total sterols. Finally, the total sterol was analysed by GC-MS and the structures of each sterol content were identified and compared with the National Institute of Standards and Technology (NIST) database.

Data set [1] deals with Aspergillus fumigatus 7544. As to the kind of experiment: Broth microdilution MIC (CLSI M27-A3/M60). Type of data set: cell-based. Conditions: MIC80 (≥80% growth inhibition), 30 °C, 48 h. As for the experimental part:
(§4) According to the Clinical Laboratory Standards Institute (CLSI, M27-A3 and M60) protocols[10]^,[11], the target compounds were evaluated for their in vitro antifungal activity by the broth microdilution method. The fungi strains used in this study were obtained from the American Type Culture Collection (ATCC) and Changhai Hospital (Shanghai, China). […] Fluconazole (FCZ) and ketoconazole (KCZ) were used as positive controls.
as §2
(§5) Fungal cells at the exponential growth stage were collected and resuspended in RPMI 1640 medium, then diluted to 1 × 10^3 cells/mL. The suspension of fungal cells was inoculated into 96-well plates. Antifungal compounds were serially added and diluted in a 2-fold series to a final concentration range of 64.0–0.125 µg/mL. RPMI 1640 medium with no fungal cells served as a blank control. The fungal suspensions containing DMSO and FCZ served as the negative control and the positive control, respectively. C. albicans, C. glabrata, C. parapsilosis, C. tropicalis, and C. auris cells were incubated at 30 °C for 24 h, C. neoformans and A. fumigatus cells were incubated at 30 °C for 48 h. The optical density (OD630) at 630 nm was measured by a spectrophotometer, which was used to calculate the MIC80 values of each compound.
In general terms: In broth dilution the organism is exposed to a series of concentrations in liquid medium.

For data set [2], the system named is Cryptococcus neoformans 22-21. Nature of the data set: Broth microdilution MIC (CLSI M27-A3/M60). The data set is classed as cell-based. Particulars: 2221, MIC80 (≥80% growth inhibition), 30 °C, 48 h, read-out: MIC, C. neo 22-21. As for the experimental part:
as §4, §2, §5

The test system of data set [3] is Candida parapsilosis 22-20. Nature of the data set: Broth microdilution MIC (CLSI M27-A3/M60). Type of data set: cell-based. Particulars: Lodderomyces parapsilosis, 2220; MIC80 (≥80% growth inhibition), 30 °C, 24 h; read-out: MIC, C. par 22-20. As for the experimental part: as §4, §2, §5
The next data set deals with Candida tropicalis 8915. As to the kind of experiment: Broth microdilution MIC (CLSI M27-A3/M60). Type of data set: cell-based. Particulars: MIC80 (≥80% growth inhibition), 30 °C, 24 h. As for the experimental part:
as §4, §2, §5

Another data set has as its system Candida glabrata 537. Nature of the data set: Broth microdilution MIC (CLSI M27-A3/M60). The data set is classed as cell-based. Particulars: Nakaseomyces glabratus, 537; MIC80 (≥80% growth inhibition), 30 °C, 24 h; read-out: MIC, C. gla 537. As for the experimental part: as §4, §2, §5
Another data set has as its system Candida albicans SC5314. Nature of the data set: Broth microdilution MIC (CLSI M27-A3/M60). Type of data set: cell-based. Particulars: Candida albicans, SC5314; MIC80 (≥80% growth inhibition), 30 °C, 24 h; read-out: MIC, C. alb SC5314. As for the experimental part:
as §4, §2, §5

In data set [4] the test system is FCZ-resistant C. albicans 901. As to the kind of experiment: MIC against FCZ-resistant strains, microdilution. The data set is classed as cell-based, Candida albicans. Particulars: Candida albicans; FCZ-resistant isolate, 30 °C, 24 h; read-out: MIC, C.alb 901.
Excerpt: as §1, §2, §3

A further data set in a line: in vitro. Conditions: rabbit.

Values after ≈ are worked out from the molar mass of the structure shown.

As for `OC(Cn1cncn1)(Cn1cncn1)c1ccc(F)cc1F` [FCZ, fluconazole, reference compound], the MIC against C. auris 918 is greater than 256 µg/mL; against C. auris 919, greater than 256 µg/mL; in [1] (Aspergillus fumigatus, 7544, read-out: MIC, A. fum 7544), greater than 64 µg/mL; in data set [2] it was 1 µg/mL (≈ 3.27 µM); in data set [3], 4 µg/mL (≈ 13.1 µM); in the data set on Candida tropicalis 8915 (Candida tropicalis, 8915, read-out: MIC, C. tro 8915), greater than 64 µg/mL. In addition, the minimum inhibitory concentration (MIC) in the data set on Candida glabrata 537 is 1 µg/mL (≈ 3.27 µM); in the data set on Candida albicans SC5314 it was 0.5 µg/mL (≈ 1.63 µM); in data set [4], greater than 256 µg/mL. In addition, the “ergosterol content of the fungal cells (of total sterols)” value with C. albicans SC5314 is reported as 6.08%. The “MIC, A. fum 7544” value in data set [1] is greater than 64.0 µg/mL. Further, the “MIC, C. tro 8915” value with Candida tropicalis 8915 is greater than 64.0 µg/mL. In “in vitro”, this compound registered a hemolysis at 1 h, 16 µg/mL of 1.3%.

By MIC is commonly meant the lowest concentration that inhibits growth of the organism.
